Results as given in patent US6479454B1, “Antimicrobial compositions and methods containing hydrogen peroxide and octyl amine oxide” (Ecolab Inc., priority 2000, dated 2002).

Legend:
[1] = test system: Pseudomonas aeruginosa; test: Minimal Bactericidal Concentration (MBC), Ecolab S.O.P. Method MS009 (A.O.A.C. Method 960.09); type: cell-based
Experimental: The term Minimal Bactericidal Concentration is used in the present invention to mean a 5 log reduction in microbe count.
An experiment was conducted to determine the Minimal Bactericidal Concentration (MBC) of octyldimethylamine oxide alone, hydrogen peroxide alone and two mixtures of octyldimethylamine oxide with hydrogen peroxide against Pseudomonas aeruginosa. Experiments were conducted using standard bacteriological techniques, specifically Ecolab Microbiological Services S.O.P. Method MS009 (reference to A.O.A.C. Method 960.09). […] The 50%/50% relative composition of amine oxide:hydrogen peroxide has a pH of 7.4 and an oxidation potential of 250 mV when diluted to 1.7% total oxidizer.

[2] = test system: Salmonella javiana; test: Antimicrobial activity (log reduction) on a tomato surface; type: cell-based
Experimental: A second experiment was conducted to determine the synergistic effects of mixing an amine oxide, peracetic acid and hydrogen peroxide. Combinations of peracetic acid and hydrogen peroxide were measured in the presence and absence of a tetradecyl-dimethylamine oxide for antimicrobial activity against Salmonella javiana. Testing was performed on a tomato surface.

OO [0/100, hydrogen peroxide]
MBC ppm peroxide ([1]; MBC = 5 log reduction in microbe count, expressed as hydrogen peroxide concentration): >2,000 ppm

CCCCCCCC[N+](C)(C)[O-] [100/0, octyldimethylamine oxide]
concentration required to obtain MBC ([1]; MBC = 5 log reduction): greater than 2000 parts per million | MBC ([1]; Pseudomonas aeruginosa, MBC = 5 log reduction in microbe count, expressed as octyldimethylamine oxide concentration, read-out: MBC ppm amine oxide): > 2000 µg/mL

CCCCCCCCCCCCCC[N+](C)(C)[O-] [Amine Oxide Alone, tetradecyl-dimethylamine oxide]
Log Reduction (S. Javiana) ([2]; ppm of each component as given in the table row): <0.2 | antimicrobial activity against S. javiana (in words) ([2]; text summary of Table II): fairly ineffective
